Assays:
human VDR [1] = molecular target: T1, human VDR (Homo sapiens, UniProt P11473); settings: for VDR binding ability, rank in words: among ADTK1 through ADTK4
T1 sequence (P11473 1-427): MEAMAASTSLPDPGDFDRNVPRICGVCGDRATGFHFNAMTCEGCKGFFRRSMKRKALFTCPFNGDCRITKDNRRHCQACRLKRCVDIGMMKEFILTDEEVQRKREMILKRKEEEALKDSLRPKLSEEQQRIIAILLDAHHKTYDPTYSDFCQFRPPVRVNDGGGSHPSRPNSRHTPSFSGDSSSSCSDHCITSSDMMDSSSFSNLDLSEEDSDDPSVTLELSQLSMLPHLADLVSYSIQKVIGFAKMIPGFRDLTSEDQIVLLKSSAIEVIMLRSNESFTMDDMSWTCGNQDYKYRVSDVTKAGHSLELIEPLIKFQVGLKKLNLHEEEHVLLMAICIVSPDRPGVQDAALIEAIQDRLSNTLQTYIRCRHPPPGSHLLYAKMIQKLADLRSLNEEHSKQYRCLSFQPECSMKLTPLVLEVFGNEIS

human VDR [2] = molecular target: T1, human VDR; assay: VDR transcription induction activity, luciferase reporter assay (mouse osteopontin VDRE) in HEK293 cells transfected with human VDR; format: cell-based; design: expressed in transfected cells; host or cells: HEK293 cells; settings: for efficacy of VDR transcription induction, % of that of the natural hormone / concentration at which the highest transcription activity was shown: HEK293 cells; for efficacy of VDR transcription induction, % of that of the natural hormone: Sppx3-tk-LUC reporter, relative to 1,25(OH)2D3; for concentration at which the highest transcription activity was shown: 10^-8 M was the lowest concentration used
Method: Briefly, HEK cells were transfected with human VDR expression vector (pCMX-VDR) and expression vectors for VDR responsive luciferase (Sppx3-tk-LUC) and β-galactosidase by the calcium phosphate method. Eight hours later, compounds were added to the cells. After culturing for 16-24 hr, cells were harvested, and the activities of luciferase and β-galactosidase were measured. Luciferase activity values were corrected with β-galactosidase activity values.

VDR binding ability, rank in words (human VDR [1])	efficacy of VDR transcription induction, % of that of the natural hormone (human VDR [2]) [%]	concentration at which the highest transcription activity was shown (human VDR [2])	affinity for human VDR relative to the natural hormone 1,25(OH)2D3 (human VDR [1]; competition with [3H]-1,25(OH)2D3, 1,25(OH)2D3 = 100%) [%]	type of activity at VDR (in words) (human VDR [2]; HEK293 luciferase assay, alone and in co-presence of 1,25(OH)2D3)	Compound
lowest VDR binding ability	72	around 10^−7 M	–	–	C=C1[C@H](O)CC(=C/C=C2\CCC[C@]3(C)[C@@H]([C@H](C)CC#C[C@H](O)CC45CC6CC(CC(C6)C4)C5)CC[C@@H]23)C[C@H]1O [ADTK3, (25R)-26-(1-Adamantyl)-1α,25-dihydroxy-2-methylene-23,23,24,24-tetradehydro-19,27-dinorvitamin D3]
–	54	around 10^−7 M	–	–	C=C1[C@H](O)CC(=C/C=C2\CCC[C@]3(C)[C@@H]([C@H](C)CC#C[C@@H](O)CC45CC6CC(CC(C6)C4)C5)CC[C@@H]23)C[C@H]1O [ADTK4, (25S)-26-(1-Adamantyl)-1α,25-dihydroxy-2-methylene-23,23,24,24-tetradehydro-19,27-dinorvitamin D3]
–	40	around 10^−7 M	–	–	(25S)-25-(1-Adamantyl)-1α,25-dihydroxy-2-methylene-23,23,24,24-tetradehydro-19,26,27-trinorvitamin D3 [ADTK1]
highest VDR binding activity	66	10^−8 M	67	partial agonist	(25R)-25-(1-Adamantyl)-1α,25-dihydroxy-2-methylene-23,23,24,24-tetradehydro-19,26,27-trinorvitamin D3 [ADTK2]

— patent US9018194B2 (Nibon University, priority 2011, dated 2015)
